Data from patent US5929112A, “Derivatives of N,N'-di (carboxyalkyl) alkylene di-or triamine” (L'Oreal, priority 1995, dated 1999).
Where a name gives a salt, the structure may show the parent alone.

Experiment: Comparative solubility tests in 50 mM acetate buffer pH 5.8
Assay type: physicochemical
Details: aqueous buffer
From the text: COMPARATIVE SOLUBILITY TESTS

Row | solubility [mg/mL] | Compound
1 | > 100 | COc1cc(CN(CC(=O)O)CC(C)N(CC(=O)O)Cc2cc(OC)c(OC)c(OC)c2)cc(OC)c1OC (centres unmarked) [Example 1, N,N'-bis-(3,4,5-trimethoxybenzyl)-2-methyl ethylenediamine diacetic acid]
2 | < 5 | COc1cc(CN(CCN(CC(=O)O)Cc2cc(OC)c(OC)c(OC)c2)CC(=O)O)cc(OC)c1OC [N,N'-bis-(3,4,5-trimethoxybenzyl) ethylenediamine-N,N'-diacetic acid, 2 HCl]
